Laboratory results published in patent US5597803A, “Bradykinin peptides with modifications at the N terminus” (Hoechst Aktiengesellschaft, priority 1992, dated 1997).

Columns and labels:
[1] = target: T1, isolated guinea pig pulmonary artery (Cavia porcellus, UniProt O70526); test: bradykinin-antagonistic action on the isolated guinea pig pulmonary artery (inhibition of bradykinin-induced contraction); assay type: cell-based; conditions: contraction by 2×10^-7 mol/l bradykinin; peptides 5×10^-8 -1×10^-5 mol/l for 10 minutes; calculated from dose-effect plots; unit inferred
T1 sequence (O70526 1-372): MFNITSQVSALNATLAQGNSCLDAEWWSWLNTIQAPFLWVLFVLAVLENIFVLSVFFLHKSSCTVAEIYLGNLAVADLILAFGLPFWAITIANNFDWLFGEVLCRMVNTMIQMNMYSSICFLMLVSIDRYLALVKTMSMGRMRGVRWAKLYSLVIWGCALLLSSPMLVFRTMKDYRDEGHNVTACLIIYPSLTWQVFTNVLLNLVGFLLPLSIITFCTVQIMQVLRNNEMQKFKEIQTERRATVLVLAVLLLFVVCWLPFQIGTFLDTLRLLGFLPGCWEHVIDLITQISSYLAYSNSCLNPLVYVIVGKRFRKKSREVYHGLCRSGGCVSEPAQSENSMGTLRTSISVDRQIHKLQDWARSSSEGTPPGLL
Description: The peptides according to the invention have, singly or in combination, a bradykinin-antagonistic action which can be tested in various models (see Handbook of Exp. Pharmacol. Vol. 25, Springer Verlag, 1970, pages 53-55), for example on the isolated rat uterus, on the guinea pig ileum or on the isolated guinea pig pulmonary artery.
(§1) To test the peptides according to the invention on the isolated pulmonary artery, guinea pigs (Dunkin Hartley) weighing 400-450 g are sacrificed by a blow to the back of the neck. The thorax is opened and the pulmonary artery is carefully dissected out. The surrounding tissue is cautiously removed and the pulmonary artery is cut open in a spiral at an angle of 45°. The strip of vessel 2.5 cm long and 3-4 mm wide is fixed in an organ bath which has a capacity of 10 ml and is filled with Ringer solution.
(§2) 95% O2 and 5% CO2 is bubbled through the solution, which is heated to 37° C. The pH is 7.4 and the preload on the strip of vessel is 1.0 g.
(§3) The isometric contraction changes are detected using a lever attachment and an HF modem (position sensor) from Hugo Sachs and are recorded on a potentiometric recorder (BEC, Goerz Metrawatt SE 460).
The experiment is started after equilibration for 1 hour. After the strips of vessel have reached their maximum sensitivity to 2×10^-7 mol/1 bradykinin--bradykinin leads to contraction of the strips of vessel--the peptides are left to act in doses of 5×10^-8 -1×10^-5 mol/l for 10 minutes each and, after renewed addition of bradykinin, the decrease in the effect of bradykinin is compared with the control.

[2] = target: T1, isolated guinea pig pulmonary artery; test: duration of action (T50) on the isolated pulmonary artery after replacement of the peptide-containing buffer; assay type: cell-based; conditions: time until strips again reach maximum sensitivity to 2×10^-7 mol/l bradykinin after washout; measure of duration of action; found by calculation
Procedure: as §1, §2, §3
The experiment is started after equilibration for 1 hour. […]
For some selected compounds, the time until the strips of vessel have again reached their maximum sensitivity to 2×10^-7 mol/l bradykinin after replacement of the peptide-containing by a "simple" buffer was also determined in the experimental arrangement described above. […]

[3] = tested on: carrageenan-induced edema of the rat paw; test: carrageenan-induced edema of the rat paw, systemic administration; assay type: in vivo; conditions: 15 min before carrageenan, male Sprague-Dawley rats, mean and standard deviation
Procedure: Antiinflammatory effect after systemic administration: carrageenan-induced edema of the rat paw
The test chosen for the acute systemic antiinflammatory effect is the carrageenan-induced edema of the rat paw by the method described by Winter C. A. et al., Proc. Soc. Exp. Biol. (N.Y.), 111, 544 (1962). Male Sprague-Dawley rats weighing about 170 g in groups of 5 animals receive the substances to be tested subcutaneously dissolved in distilled water (1 ml/kg bodyweight). 15 min later, after measurement of the initial volume of the paw, 0.1 ml of 0.5% strength carrageenan solution is injected under ether anesthesia into the left rear paw. The increase in volume of the swelling is measured 3 and 6 h later, Controls receive only the vehicle. The paw volume is reported in ml (mean and standard deviation).

IC50 [1] [µM] | T50 (pulmonary artery) [2] [min] | Substance | Increase in paw volume after 3 h ([3]; 0.1 mg/kg subcutaneously) [mL] | Increase in paw volume after 6 h ([3]; 0.1 mg/kg subcutaneously) [mL] | Increase in paw volume after 3 h ([3]; 1.0 mg/kg subcutaneously) [mL] | Increase in paw volume after 6 h ([3]; 1.0 mg/kg subcutaneously) [mL]
0.025 | – | Fmoc-(4-aminocyclohexylcarbonyl)-D-Arg-Arg-Pro-Hyp-Gly-Thi-Ser-D-Tic-Oic-Arg-OH [Example 15] | – | – | – | –
0.0085 | 253.3 | Fmoc-Aoc-D-Arg-Arg-Pro-Hyp-Gly-Thia-Ser-D-Tic-Oic-Arg-OH [Example 2] | 0.13 ± 0.04 | 0.29 ± 0.08 | 0.19 ± 0.06 | 0.27 ± 0.06
0.022 | – | Fmoc-D-Aoc-Arg -Arg-Pro-Hyp-Gly-Thi-Ser-D-Tic-Oic-Arg-OH [Example 7] | – | – | – | –
